Results on 14 molecules are retold here after ChEMBL document CHEMBL1201862, “PubChem BioAssay data set” (2004).

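Each compound was tested at five concentrations against cells in 96-well plates for 48 hours. Abbreviation: GI50, concentration required for 50% inhibition of growth.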 Calls of active or inactive are those of the source. Rule as the data show it: active = GI50 up to about 1.1 µM and inactive = higher.

Test systems include UO-31; HT-29; HCC 2998; U-251; SK-MEL-28; NCI-H522; K562; M14; RXF 393; A549; SNB-19; SF-268; IGROV-1; HL-60; NCI-H460; HOP-62; A498.
Common to all, as to assay: DTP human tumour cell line panel, 48 h

In the case of `Nc1ccc(C(=O)N/C(=C\C=C\c2ccco2)c2nc3c(O)nc(S)nc3[nH]2)cc1`, the GI50 in the assay with UO-31, in the assay with HT-29, in the assay with HCC 2998, in the assay with U-251, in the assay on SK-MEL-28 and in the assay with NCI-H522 was > 100 µM (inactive) each time. In addition, the GI50 with K562, in the assay with M14, with RXF 393, in the assay with A549, in the assay on SNB-19 and in the assay with SF-268 was > 100 µM (inactive) each time. Moreover, the GI50 with IGROV-1 was > 100 µM (inactive).

As to `COC1CC(OS(=O)(=O)c2ccc(C)cc2)C(OS(=O)(=O)c2ccc(C)cc2)C(COS(=O)(=O)c2ccc(C)cc2)O1` (stereo not drawn), the GI50 in the assay on UO-31 was 3.76 µM (inactive); in the assay on HT-29, 3.31 µM (inactive); in the assay on HL-60, 30.1 µM (inactive); with HCC 2998, 12.8 µM (inactive); in the assay on U-251, 3.01 µM (inactive); in the assay with SK-MEL-28 it was 2.98 µM (inactive). Also, the GI50 was 3.8 µM (inactive) with NCI-H522; 23.9 µM (inactive) in the assay on K562; 5.22 µM (inactive) with M14; 1.71 µM (inactive) in the assay on RXF 393; 4.3 µM (inactive) in the assay with NCI-H460; 5.9 µM (inactive) in the assay on A549. In addition, the GI50 in the assay on SNB-19 is 2.22 µM (inactive); with SF-268, 1.02 µM (active); with IGROV-1 it was 4.89 µM (inactive); in the assay with HOP-62, 2.18 µM (inactive).

With `COc1ccc(C(=O)O)c(Br)c1OCc1ccccc1`, the GI50 is 88.3 µM (inactive) in the assay on UO-31; > 100 µM (inactive) in the assay on HT-29; > 100 µM (inactive) in the assay with HL-60; > 100 µM (inactive) with A498; > 100 µM (inactive) in the assay on U-251; > 100 µM (inactive) in the assay on SK-MEL-28. Besides, the GI50 in the assay on NCI-H522, with K562, in the assay with M14, in the assay on RXF 393, in the assay on NCI-H460 and in the assay on A549 was > 100 µM (inactive) throughout. Also, the GI50 in the assay on SNB-19, in the assay on SF-268, in the assay on IGROV-1 and in the assay with HOP-62 was > 100 µM (inactive) throughout.

For `O=C1COc2cc3c(cc2N1)SCCC(=O)N3`, the GI50 in the assay on UO-31, in the assay on HT-29, in the assay with HL-60, in the assay on A498, in the assay on HCC 2998 and in the assay with SK-MEL-28 was > 100 µM (inactive) throughout. In addition, the GI50 in the assay on NCI-H522, with K562, with M14, in the assay on A549, with SNB-19 and with SF-268 was > 100 µM (inactive) in each case. In addition, the GI50 in the assay with IGROV-1 and in the assay with HOP-62 was > 100 µM (inactive) in each case.

As to `COc1cc2c(c3c1C=CCO3)C(=O)c1ccccc1C2=O`, the GI50 in the assay with UO-31 was 29.5 µM (inactive); in the assay on HT-29 it was 70.1 µM (inactive); in the assay on HL-60, 19.3 µM (inactive); in the assay on HCC 2998, 50.2 µM (inactive); in the assay on U-251 it was 30.8 µM (inactive); in the assay on SK-MEL-28 it was > 100 µM (inactive). In addition, the GI50 was 29.7 µM (inactive) in the assay with NCI-H522; 32.3 µM (inactive) in the assay with K562; 82 µM (inactive) in the assay with M14; > 100 µM (inactive) in the assay on RXF 393; 39.8 µM (inactive) with NCI-H460; 38.5 µM (inactive) in the assay on A549. Further, the GI50 in the assay with SNB-19 was 45.3 µM (inactive); with SF-268, 47.6 µM (inactive); in the assay with IGROV-1, 26.8 µM (inactive); with HOP-62 it was 41.3 µM (inactive).

For the molecule `CC1=CC(/C=C(\C)CCCc2ccoc2)C2(OC(=O)C(C)=C2O)[C@H]2C1CC[C@@H]2C` (stereo partly drawn), the GI50 in the assay with UO-31 was 16.5 µM (inactive); in the assay on HT-29, 34.3 µM (inactive); in the assay with A498 it was 15.5 µM (inactive); with HCC 2998 it was 29.9 µM (inactive); with U-251, 25 µM (inactive); in the assay on SK-MEL-28 it was 27.6 µM (inactive). For the same molecule, the GI50 with NCI-H522 was 13.9 µM (inactive); in the assay on K562, 24.7 µM (inactive); with M14, 23.1 µM (inactive); with RXF 393, 18.3 µM (inactive); in the assay with A549, 23.4 µM (inactive); in the assay on SNB-19, 11.9 µM (inactive). Besides, the GI50 with IGROV-1 was 32.3 µM (inactive).

With `O=C1NC2OC(CO)C(O)C(O)C2O1` (stereo not drawn), the GI50 in the assay with UO-31, with HT-29, with HL-60, with A498, with HCC 2998 and with U-251 was > 100 µM (inactive) throughout. The GI50 in the assay with SK-MEL-28, in the assay on NCI-H522, with K562, with M14, with NCI-H460 and in the assay on A549 was > 100 µM (inactive) in each case. The GI50 in the assay with SNB-19, in the assay with SF-268, in the assay on IGROV-1 and with HOP-62 was > 100 µM (inactive) each time.

Consider `FC1OC2OC1C(OCc1ccccc1)C(OCc1ccccc1)C2OCc1ccccc1` (stereo not drawn), for which the GI50 was 36.1 µM (inactive) in the assay on UO-31; 34.8 µM (inactive) in the assay with HT-29; 24.9 µM (inactive) with HL-60; > 100 µM (inactive) with A498; 88.3 µM (inactive) with U-251; 33.4 µM (inactive) with SK-MEL-28. The GI50 with NCI-H522 is > 10 µM (inactive); with K562, 25.8 µM (inactive); with M14, 28.1 µM (inactive); in the assay on RXF 393, > 100 µM (inactive); in the assay on NCI-H460, > 100 µM (inactive); in the assay with A549 it was 72.8 µM (inactive). The GI50 is 84.9 µM (inactive) in the assay on SNB-19, 32.4 µM (inactive) in the assay with SF-268 and 34.6 µM (inactive) in the assay with IGROV-1.

Consider `Cc1ccc(SSc2ccc(C)cc2C(=O)O)c(C(=O)O)c1`, for which the GI50 with UO-31, in the assay with HT-29, with HL-60, in the assay with A498, in the assay on U-251 and in the assay on SK-MEL-28 was > 100 µM (inactive) in each case. For the same molecule, the GI50 in the assay with NCI-H522, in the assay on K562, with RXF 393, with NCI-H460, in the assay with A549 and with SNB-19 was > 100 µM (inactive) each time. Further, the GI50 in the assay on SF-268 and in the assay on HOP-62 was > 100 µM (inactive) each time.

For the molecule `CC(C#N)c1cn(S(=O)(=O)c2ccccc2)c2ccccc12` (stereo not drawn), the GI50 in the assay on UO-31 was 15.8 µM (inactive); in the assay on HT-29 it was > 100 µM (inactive); with HL-60, 26 µM (inactive); in the assay with HCC 2998, 76.7 µM (inactive); in the assay on U-251, > 100 µM (inactive); in the assay on SK-MEL-28 it was 60.7 µM (inactive). Also, the GI50 in the assay with NCI-H522 was 27.7 µM (inactive); with K562, 39.8 µM (inactive); in the assay on M14, 33.7 µM (inactive); in the assay on NCI-H460, 61.7 µM (inactive); in the assay with A549, 36.5 µM (inactive); in the assay with SNB-19, 42.9 µM (inactive). The results for the GI50 in the assay with SF-268, in the assay on IGROV-1 and in the assay with HOP-62 were 82.8 µM (inactive), 78.5 µM (inactive) and 37.5 µM (inactive), respectively.

On to `C/C(=N\N(C)C)C(CN(C)C)C(c1ccccc1)c1c(O)c2ccccc2oc1=O` (stereo not drawn), for which the GI50 in the assay with HT-29, in the assay with HL-60, in the assay with HCC 2998, with U-251, in the assay on SK-MEL-28 and in the assay with NCI-H522 was > 100 µM (inactive) in each case. Besides, the GI50 in the assay with K562, in the assay with M14, in the assay with RXF 393, in the assay on NCI-H460, in the assay on A549 and in the assay with SNB-19 was > 100 µM (inactive) in each case. Besides, the GI50 in the assay on SF-268 and with IGROV-1 was > 100 µM (inactive) in each case.

For `Cc1ccc2c(c1)C1(C)OC(CC(N)C1O)O2` (stereo not drawn), the GI50 with UO-31, in the assay on HT-29, with HL-60, in the assay with U-251, with SK-MEL-28 and in the assay with NCI-H522 was > 100 µM (inactive) in each case. For the same molecule, the GI50 with K562, in the assay on M14, with RXF 393, in the assay on NCI-H460, in the assay with A549 and in the assay on SNB-19 was > 100 µM (inactive) throughout. The GI50 in the assay with IGROV-1 and with HOP-62 was > 100 µM (inactive) each time.

As for `CCC(CO)Nc1nc2c(c(=O)n(C)c(=O)n2C)n1CCO` (stereo not drawn), the GI50 with UO-31, in the assay on HT-29, in the assay with HCC 2998, in the assay with U-251, with SK-MEL-28 and with K562 was > 100 µM (inactive) in each case. For the same molecule, the GI50 in the assay on RXF 393, with A549, with SNB-19, in the assay with SF-268 and in the assay on IGROV-1 was > 100 µM (inactive) in each case.

Consider `Cc1cccc(C(C)(C)C)c1NC(=O)CC1Sc2ccccc2NC1=O` (stereo not drawn), for which the GI50 with UO-31 is 60.5 µM (inactive); in the assay with HT-29, 43 µM (inactive); with HL-60, 46.1 µM (inactive); in the assay with A498, > 100 µM (inactive); in the assay with HCC 2998 it was > 100 µM (inactive); in the assay with U-251 it was 25.6 µM (inactive). Further, the GI50 in the assay on SK-MEL-28 is > 100 µM (inactive); with NCI-H522, > 100 µM (inactive); with K562 it was 33 µM (inactive); in the assay with M14 it was > 100 µM (inactive); with NCI-H460 it was 34 µM (inactive); in the assay with A549 it was > 100 µM (inactive). Further, the GI50 in the assay on SNB-19 is > 100 µM (inactive); with SF-268, 87.9 µM (inactive); in the assay with IGROV-1, > 100 µM (inactive); in the assay with HOP-62 it was > 100 µM (inactive).
